Data on 3 compounds can be found in patent publication US10772327B2, “Herbicide composition containing isopropylamine caprylate” (HUNAN AGRICULTURAL BIOTECHNOLOGY RESEARCH INSTITUTE, priority 2018, dated 2020).

Structures are written as SMILES.

Holding throughout (test): Indoor test for herbicidal activity, stem and leaf spray on potted weeds
Holding throughout (settings): Day 7, fresh weight of above-ground portion

The subject of assay [1] is Echinochloa crusgalli.
For assay [2], the system named is Ludwigia prostrata.
Assay [3] has as its system Eleocharis yokoscensis. The format is in vivo.
For assay [4], the system named is Beckmannia syzigachne. The format is in vivo.
The test system of assay [5] is Poa annua. Type of assay: in vivo.
Assay [6] concerns Conyza candesis. Type of assay: in vivo.
Assay [7] relates to Myosoton aquaticum. Type of assay: in vivo.
The test system of assay [8] is Xanthium sibiricum. The format is in vivo.
Assay [9] concerns Veronica persica. The format is in vivo.
The test system of assay [10] is Stellaria media. Type of assay: in vivo.
Assay [11] deals with Cardamine hirsuta. The format is in vivo.
[12] abbreviates: listed as glyphosate isopropylamine.
The mark [13] stands for this setting: listed as glyphosate isopropylamine salt.
Where [14] appears, read: listed as isopropylamine caprylate.

Regarding `CC(C)N.O=C(O)CNCP(=O)(O)O` [Glyphosate isopropylamine], the “ED50 (95% confidence interval of ED50)” value in assay [1] is recorded as 52.18 (40.13-65.02) mg/mL; in assay [1] (setting [12]), 52.18 mg/mL; in assay [1] (setting [13]), 52.18 mg/mL; in assay [2] it was 46.79 (41.87-52.27) mg/mL; in assay [2] (setting [12]), 46.79 mg/mL; in assay [2] (setting [13]), 46.79 mg/mL. Moreover, the “ED90 (95% confidence interval of ED90)” value in assay [1] is 384.59 (360.35-420.77) mg/mL; in assay [2], 321.75 (271.72-380.99) mg/mL.

Regarding `CCCCCCCC(=O)O` [Caprylic acid], the “ED50 (95% confidence interval of ED50)” value in assay [1] is reported as 14.07 (13.66-14.48) mg/mL; in [1] (listed as caprylic acid), 14.07 mg/mL; in [2], 12.52 (10.66-14.43) mg/mL; in assay [2] (listed as caprylic acid), 12.52 mg/mL. The “ED90 (95% confidence interval of ED90)” value in [1] was 108.65 (92.83-124.80) mg/mL; in assay [2], 96.04 (85.15-108.33) mg/mL.

For the compound `CCCCCCCC(=O)O` [Isopropylamine caprylate, isopropylamine caprylate], the “ED50 (95% confidence interval of ED50)” value in assay [3] was 3.23 (2.00-9.55) mg/mL; in assay [4], 3.07 (1.66-8.48) mg/mL; in assay [5], 3.07 (2.66-10.48) mg/mL; in assay [6], 0.74 (0.25-1.05) mg/mL; in assay [7] it was 0.18 (0.04-0.25) mg/mL; in assay [8], 0.64 (0.22-1.03) mg/mL. In addition, the “ED50 (95% confidence interval of ED50)” value is 0.78 (0.28-2.35) mg/mL in [9]; 0.80 (0.47-1.77) mg/mL in assay [10]; 0.90 (0.11-2.46) mg/mL in assay [11]; 4.07 (2.66-10.48) mg/mL in assay [1]; 4.07 mg/mL in assay [1] (setting [14]); 0.52 (0.35-0.61) mg/mL in [2]. Also, the “ED50 (95% confidence interval of ED50)” value in assay [2] (setting [14]) stood at 0.52 mg/mL. Besides, the “ED90 (95% confidence interval of ED90)” value was 24.11 (18.74-40.82) mg/mL in assay [3]; 30.65 (24.12-44.50) mg/mL in assay [4]; 28.65 (22.83-40.82) mg/mL in assay [5]; 15.54 (8.74-20.93) mg/mL in assay [6]; 16.47 (8.35-20.23) mg/mL in assay [7]; 19.11 (10.80-31.14) mg/mL in assay [8]. Besides, the “ED90 (95% confidence interval of ED90)” value in [9] is listed as 9.16 (5.09-22.65) mg/mL; in [10], 16.69 (7.91-26.98) mg/mL; in [11], 18.36 (10.74-35.88) mg/mL; in [1], 28.65 (22.83-40.82) mg/mL; in assay [2], 13.21 (9.17-18.31) mg/mL.
